# Values joined by “and” are separate entries in the source; they are usually repeats but may differ in a detail not shown here. Identical values can stand only once. Like-named read-outs stand apart in the source and are kept apart here.
# Assays:
# [1] = target: T1, rat GLP-1 receptor (Rattus norvegicus, UniProt P32301); assay: cAMP potency assay in CHO cells transfected with the rat GLP-1 receptor (CHO-GLP-1R); type: cell-based
# T1 construct: expressed in transfected cells; host or cells: CHO (CHO-GLP-1R)
# T1 sequence (P32301 22-463): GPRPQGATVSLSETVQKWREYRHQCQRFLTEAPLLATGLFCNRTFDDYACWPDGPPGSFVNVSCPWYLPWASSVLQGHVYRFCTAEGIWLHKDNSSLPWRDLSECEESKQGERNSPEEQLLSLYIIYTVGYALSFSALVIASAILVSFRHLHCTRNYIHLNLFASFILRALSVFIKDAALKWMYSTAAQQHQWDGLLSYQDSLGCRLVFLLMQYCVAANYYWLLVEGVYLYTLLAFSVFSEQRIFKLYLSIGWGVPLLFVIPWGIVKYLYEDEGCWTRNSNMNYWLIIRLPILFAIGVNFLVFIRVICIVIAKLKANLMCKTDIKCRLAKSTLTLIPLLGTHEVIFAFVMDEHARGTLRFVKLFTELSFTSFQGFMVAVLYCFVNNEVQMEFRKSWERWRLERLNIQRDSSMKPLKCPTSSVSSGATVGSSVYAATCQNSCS
# Experimental: 96-well tissue culture plates were seeded with CHO-GLP-1R cells and cultured overnight. The following day, the cells were rinsed with Krebs-Ringer buffer (KRB) and incubated in KRB containing the phosphodiesterase inhibitor 3-isobutyl-1-methylxanthine (IBMX, 2 mM) to inhibit intracellular enzymes that process cAMP. Serial dilutions of test compounds and controls were prepared in KRB/IBMX and triplicate wells of cells were inoculated with samples and controls. After incubation, individual sample lysates were then assayed to measure the increase in intracellular cAMP levels using a competition-based fluorescent immunoassay (CatchPoint® cAMP Fluorescent Assay Kit, Molecular Devices Corp., Sunnyvale, Calif.).
# [2] = system: diabetic mice (db/db); assay: blood glucose in db/db mice after inhalation of aerosolized fusion protein; type: in vivo; settings: inhalation exposure equivalent to 0.3, 1 and 3 mg/kg
# Description: (§1) Aerosols were generated with an Aerotech II compressed air jet nebulizer (CIS-US Inc., Bedford, Mass.) and directed through a 1.58 cm diameter stainless steel aerosol delivery line into a 24-port flow past rodent exposure system (IN-TOX, ABQ, NM). The exhaust flow rate out of the chamber was ˜11.5 L/min. The nebulizer pressure was maintained at ˜30 psi.
# [3] = target: T2, human GLP-1 receptor (Homo sapiens, UniProt P43220); assay: cell-based cAMP assay in CHO cells expressing the human GLP-1 receptor (FIG. 4)
# T2 construct: expressed in transfected cells; host or cells: CHO
# T2 sequence (P43220 24-463): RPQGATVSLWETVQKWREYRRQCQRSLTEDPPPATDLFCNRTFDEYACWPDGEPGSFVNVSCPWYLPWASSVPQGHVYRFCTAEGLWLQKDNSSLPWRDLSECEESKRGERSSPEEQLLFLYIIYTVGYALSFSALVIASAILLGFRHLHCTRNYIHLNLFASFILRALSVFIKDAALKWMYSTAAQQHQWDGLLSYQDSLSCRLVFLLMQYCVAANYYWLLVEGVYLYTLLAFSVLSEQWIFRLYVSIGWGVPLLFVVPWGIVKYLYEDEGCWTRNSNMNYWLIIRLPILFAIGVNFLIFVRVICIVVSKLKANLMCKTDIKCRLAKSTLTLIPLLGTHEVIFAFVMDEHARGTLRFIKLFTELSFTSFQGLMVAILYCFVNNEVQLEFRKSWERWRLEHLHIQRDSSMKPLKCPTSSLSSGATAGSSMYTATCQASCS
# [4] = system: Diabetic (db/db) mice; assay: blood glucose in diabetic (db/db) mice after subcutaneous injection; type: in vivo
# [5] = target: T3, matrix metalloprotease I (MMP-1, collagenase) (Homo sapiens, UniProt P03956); type: in vitro ADME
# T3 sequence (P03956 100-469): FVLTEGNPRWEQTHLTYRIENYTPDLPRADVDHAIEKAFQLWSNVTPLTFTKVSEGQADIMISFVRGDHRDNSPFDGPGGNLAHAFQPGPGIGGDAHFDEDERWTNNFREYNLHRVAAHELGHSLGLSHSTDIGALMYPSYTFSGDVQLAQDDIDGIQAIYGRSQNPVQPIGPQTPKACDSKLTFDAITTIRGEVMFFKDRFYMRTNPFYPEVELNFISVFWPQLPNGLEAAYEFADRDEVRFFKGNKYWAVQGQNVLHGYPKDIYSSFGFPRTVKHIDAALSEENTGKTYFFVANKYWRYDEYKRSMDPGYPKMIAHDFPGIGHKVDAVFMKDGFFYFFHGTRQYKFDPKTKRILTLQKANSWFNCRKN
# Description: This difference in degradation occurs despite the close similarity in amino acid sequence in the active portion of the molecules.
# [6] = system: mice; assay: body weight in mice after a single dose; type: in vivo; settings: for average drop in body weight: twenty-four hours after administration
# Description: Such a dose can also be administered once per two weeks or once per month.
# [7] = mouse, in vivo, inhaled or intranasal
# Experimental: The inhalation time in the chamber was chosen so that the animals would receive an exposure equivalent to the 0.3, 1 and 3 mg/kg dose administered subcutaneously. As a control, these doses were administered subcutaneously (SC) to compare in vivo activity to the inhaled route of administration.
# [8] = effect of aerosolization on integrity and activity of the fusion protein; type: physicochemical
# Description: as §1
# [9] = cynomolgus monkey, in vivo, 1 mg/kg
# [10] = system: Sprague Dawley rats; assay: rat body weight, daily subcutaneous injections; type: in vivo
# Description: The rats were weighed everyday (prior to dosing on dosing days). Animals had full access to food and water at all times.
# By day five, the animals treated with 100 nmole/kg doses lost an average of 75 grams (17%) body weight compared to controls, and the weight loss is related to a drop in food and water intake. Because of the dramatic and acute weight loss observed, daily administration of the drug was stopped at day five. After the 5 day administration period, all animals gained weight at a similar rate.
substance,measurement,setting,value
exendin-4(1-39) (PEAPTD)2 (SEQ ID NO: 5) mTf fusion protein: exendin-4(1-39) (SEQ ID NO: 4) linked via linker (PEAPTD)2 to modified transferrin mTf (SEQ ID NO: 17); sequence SEQ ID NO: 23,EC50,[1]; cAMP accumulation in CHO-GLP-1R cells,0.16 nM
same,"potency relative to the GLP-1(7-37,A8G,K34A) (PEAPTD)2 mTf fusion protein",[1]; in vitro activation of the GLP-1 receptor,four-eight fold more potent
same,blood glucose levels after inhalation,[2],significant drop
same,EC50,"[3]; cell-based cAMP assay, FIG. 4",0.0313 nM
same,potency relative to exendin-4 (fold less potent),"[3]; in vitro, CHO cells expressing the human GLP-1 receptor",approximately 5 fold
same,time the almost normalized glucose level persisted,[4]; all treatment groups,24 h
same,dose that significantly reduced blood glucose,[4]; by 3 hours after subcutaneous injection,≤ 1.3 nmol/kg
same,"effect on blood glucose compared with equivalent doses of the GLP-1(7-37,A8G,K34A) (PEAPTD)2 mTf fusion protein",[4]; equivalent doses,significantly greater and of a longer duration
same,time at which glucose concentrations returned to pretreatment levels,"[4]; post-treatment, depending on the dose",48 to 72 h
same,reduction in blood glucose,[4]; reduction seen in db/db mice,approximately 70%
same,resistance to inactivation by MMP-1,[5],resistant to inactivation by MMP-1
same,dose correlated with a reduction in animal body weight,[6]; mice and rats,≥ 10 nmol/kg
same,average drop in body weight,[6]; single dose 10 nmole/kg,6%
same,average drop in body weight,[6]; single dose 100 nmole/kg,14%
same,bioavailability,[7],approximately 10%
same,effect of aerosolization on structure,"[8]; 10 mg/mL in 10 mM histidine pH 7.4, 100 mM NaCl, nebulized, SDS-PAGE and SEC-HPLC",no detectable adverse effect on the structure
same,biological activity of material recovered after aerosolization,[8]; condensed liquid from the aerosol,biologically active
same,Vz,[9]; iv,0.0659 ± 0.031 L/kg
same,λ z,[9]; iv,0.0313 ± 0.0137 h − 1
same,F,[9]; sc,49.0%
same,λ z,[9]; sc,0.0252 ± 0.0084 h − 1
same,body weight loss,"[10]; 100 nmole/kg daily administration, rats",17% and 16%
same,average body weight loss compared to controls,"[10]; 100 nmole/kg daily, by day five",75 grams
same,body weight change,[10]; 10 and 100 nmole/kg doses,lost weight after the first injection
same,body weight versus control animals after end of dosing,[10]; 20 days following the last administration,still weighed less than the control animals
